Results taken from patent US5151417A, “3-substituted vinyl cephalosporin derivatives” (Eisai Co., Ltd., priority 1989, dated 1992).
Values after ≈ are worked out from the molar mass of the structure shown. Where two headings read alike, the source gives them in different places. Blank lines part the entries; values can stand above or below the compound they belong to.

Experiments:
Type in all cases: cell-based
[1] = system: Morganella morganii IID 602; experiment: In vitro antibacterial activity, Morganella morganii IID 602 (Table 1); conditions: IID602
Description: (§1) Typical compounds out of the compounds described in Examples were classified into some groups. On each compound group, in vitro antibacterial activities were tested by a method known per se in the art.

[2] = system: Staphylococcus aureus 209PJCl; experiment: In vitro antibacterial activity, Staphylococcus aureus 209PJCl (Table 1)
Description: as §1

[3] = system: Escherichia coli MIHJ JC-2; experiment: In vitro antibacterial activity, Escherichia coli MIHJ JC-2 (Table 1); conditions: MIHJJC2
Description: as §1

[4] = system: Klebsiella pneumoniae IID 875; experiment: In vitro antibacterial activity, Klebsiella pneumoniae IID 875 (Table 1); conditions: IID875
Description: as §1

[5] = system: Serratia marcescens IID 620; experiment: In vitro antibacterial activity, Serratia marcescens IID 620 (Table 1); conditions: IID620
Description: as §1

[6] = system: Klebsiella pneumoniae EK-6; experiment: In vitro antibacterial activity, Klebsiella pneumoniae EK-6 (Tables 2-6); conditions: Klebsiella pneumoniae
Description: as §1

[7] = system: Staphylococcus aureus 209-P; experiment: In vitro antibacterial activity, Staphylococcus aureus 209-P (Tables 2-6); conditions: Staphylococcus aureus, 209P
Description: as §1

[8] = system: Morganella morganii EP-14; experiment: In vitro antibacterial activity, Morganella morganii EP-14 (Tables 2-6); conditions: Morganella morganii
Description: as §1

[9] = system: Serratia marcescens ES-75; experiment: In vitro antibacterial activity, Serratia marcescens ES-75 (Tables 2-6); conditions: Serratia marcescens
Description: as §1

Escherichia coli NIHJ = experiment: In vitro antibacterial activity, Escherichia coli NIHJ (Tables 2-6); conditions: Escherichia coli
Description: as §1

[10] = Morganella morganii IID 602, read-out: MIC
[11] = Staphylococcus aureus 209PJCl, read-out: MIC
[12] = Escherichia coli MIHJ JC-2, read-out: MIC
[13] = Klebsiella pneumoniae IID 875, read-out: MIC
[14] = Serratia marcescens IID 620, read-out: MIC
[15] = EK6, Klebsiella pneumoniae EK-6, read-out: MIC
[16] = Staphylococcus aureus 209-P, read-out: MIC
[17] = EP14, Morganella morganii EP-14, read-out: MIC
[18] = ES75, Serratia marcescens ES-75, read-out: MIC
[19] = Escherichia coli NIHJ, read-out: MIC

SMILES: NC(=O)OC/C=C\C1=C(C(=O)[O-])N2C(=O)C(NC(=O)/C(=N\O)c3csc(N)n3)[C@H]2SC1.[Na+] (stereo partly shown) [Example 1, Sodium 7-[(Z)-2-(2-aminothiazol-4-yl)-2-hydroxyiminoacetamido]-3-[(Z)-3-carbamoyloxy-1-propenyl]-3-cephem-4-carboxylate]
MIC ([1]; Morganella morganii): 0.012 µg/mL | MIC ([2]; Staphylococcus aureus, 209PJCL): 0.1 µg/mL | MIC ([3]; Escherichia coli): 0.025 µg/mL | MIC ([4]; Klebsiella pneumoniae): 0.012 µg/mL | MIC ([5]; Serratia marcescens): 0.025 µg/mL

SMILES: CO/N=C(\C(=O)NC1C(=O)N2C(C(=O)[O-])=C(/C=C\COC(N)=O)CS[C@H]12)c1csc(N)n1.[Na+] (stereo partly shown) [Example 7, Sodium 7-[(Z)-2-(2-aminothiazol-4-Yl)-2-methoxyiminoacetamido]-3-[(Z)-3-carbamoyloxy-1-propenyl]-3-cephem-4-carboxylate]
MIC ([1]; Morganella morganii): 0.025 µg/mL | MIC ([2]; Staphylococcus aureus, 209PJCL): 0.8 µg/mL | MIC ([3]; Escherichia coli): 0.2 µg/mL | MIC ([4]; Klebsiella pneumoniae): 0.025 µg/mL | MIC ([5]; Serratia marcescens): 0.025 µg/mL

SMILES: CNC(=O)OC/C=C\C1=C(C(=O)[O-])N2C(=O)C(NC(=O)/C(=N\O)c3csc(N)n3)[C@H]2SC1.[Na+] (stereo partly shown) [Example 9, Sodium 7-[(Z)-2-(2-aminothiazol-4-yl)-2-hydroxyiminoacetamido]-3-[(Z)-3-(N-methylcarbamoyloxy)-1-propenyl]-3-cephem-4-carboxylate]
MIC ([1]; Morganella morganii): 0.1 µg/mL | MIC ([2]; Staphylococcus aureus, 209PJCL): 0.1 µg/mL | MIC ([3]; Escherichia coli): 0.05 µg/mL | MIC ([4]; Klebsiella pneumoniae): 0.012 µg/mL | MIC ([5]; Serratia marcescens): 0.8 µg/mL

MIC [1, 10]: 0.05 µg/mL (≈ 0.105 µM) | MIC [2, 11]: 0.1 µg/mL (≈ 0.209 µM) | MIC [3, 12]: 0.1 µg/mL (≈ 0.209 µM) | MIC [4, 13]: 0.05 µg/mL (≈ 0.105 µM) | MIC [5, 14]: 0.8 µg/mL (≈ 1.68 µM)
SMILES: Nc1nc(/C(=N/O)C(=O)NC2C(=O)N3C(C(=O)O)=C(/C=C/Cn4cnnn4)CSC23)cs1 (stereo not shown) [Example 11, 7-[2-(2-Aminothiazole)-2-hydroxyiminoacetamido]-3-(3-1H-tetrazolyl-1-propenyl-1-yl)-3-cephem-4-carboxylate]

MIC [1, 10]: 0.05 µg/mL (≈ 0.105 µM) | MIC [2, 11]: 0.1 µg/mL (≈ 0.209 µM) | MIC [3, 12]: 0.1 µg/mL (≈ 0.209 µM) | MIC [4, 13]: 0.1 µg/mL (≈ 0.209 µM) | MIC [5, 14]: 0.8 µg/mL (≈ 1.68 µM)
SMILES: Nc1nc(/C(=N/O)C(=O)NC2C(=O)N3C(C(=O)O)=C(/C=C/Cn4ncnn4)CSC23)cs1 (stereo not shown) [Example 12, 7-[2-(2-Aminothiazole)-2-hydroxyiminoacetamido]-3-(3-2H-tetrazolyl-1-propenyl-1-yl)-3-cephem-4-carboxylic Acid]

SMILES: NC(=O)OC/C=C/C1=C(C(=O)[O-])N2C(=O)C(NC(=O)/C(=N\O)c3csc(N)n3)[C@H]2SC1.[Na+] (stereo partly shown) [Example 13, Sodium 7-[(Z)-2-(2-aminothiazol-4-yl)-2-hydroxyiminoacetamido]-3-[(E)-3-carbamoyloxy-1-propenyl]-3-cephem-4-carboxylate]
MIC ([1]; Morganella morganii): 0.05 µg/mL | MIC ([2]; Staphylococcus aureus, 209PJCL): 0.1 µg/mL | MIC ([3]; Escherichia coli): 0.1 µg/mL | MIC ([4]; Klebsiella pneumoniae): 0.025 µg/mL | MIC ([5]; Serratia marcescens): 0.1 µg/mL

MIC [6, 15]: 0.05 µg/mL | MIC [7, 16]: 0.2 µg/mL | MIC [8, 17]: 0.012 µg/mL | MIC [9, 18]: 0.05 µg/mL | MIC (Escherichia coli NIHJ; [19]): 0.1 µg/mL
SMILES: C=CCNC(=O)OC/C=C\C1=C(C(=O)O)N2C(=O)C(NC(=O)/C(=N\O)c3csc(N)n3)C2SC1 (stereo not shown) [Example 46, Sodium 7-[(Z)-2-(2-aminothiazol-4-yl)-2-hydroxyiminoacetamido]-3-[(Z)-30(N-allylcarbamoyloxy)-1-propenyl] -3-cephem-4-carboxylate]

SMILES: CO/N=C(\C(=O)N[C@@H]1C(=O)N2C(C(=O)[O-])=C(/C=C\C3CCCO3)CS[C@H]12)c1csc(N)n1.[Na+] (stereo partly drawn) [Example 49, Sodium 7β-[(Z)-2-aminothiazol-4-yl-2-methoxyiminoacetamido]-3-[(Z)-2-(tetrahydrofuran-2-yl)vinyl]-3-cephem-4-carboxylate]
MIC ([6]; EK6): 0.4 µg/mL | MIC [7]: 1.56 µg/mL | MIC ([8]; EP14): 0.1 µg/mL | MIC ([9]; ES75): 0.05 µg/mL | MIC (Escherichia coli NIHJ): 0.8 µg/mL

SMILES: CO/N=C(\C(=O)N[C@@H]1C(=O)N2C(C(=O)[O-])=C(/C=C/C3CCC(=O)O3)CS[C@H]12)c1csc(N)n1.[Na+] (stereo partly drawn) [Example 52, Sodium 7β-[(Z)-2-aminothiazol-4-yl-2-methoxyiminoacetamido]-3-[(E)-2-(5-oxotetrahydrofuran 2-yl)vinyl]-3-cephem-4-carboxylate]
MIC ([6]; EK6): 0.025 µg/mL | MIC [7]: 0.4 µg/mL | MIC ([8]; EP14): ≤ 0.006 µg/mL | MIC ([9]; ES75): 0.012 µg/mL | MIC (Escherichia coli NIHJ): 0.1 µg/mL

MIC [6, 15]: 0.025 µg/mL (≈ 0.0411 µM) | MIC [7, 16]: 0.1 µg/mL (≈ 0.165 µM) | MIC [8, 17]: 0.025 µg/mL (≈ 0.0411 µM) | MIC [9, 18]: 0.05 µg/mL (≈ 0.0823 µM) | MIC (Escherichia coli NIHJ; [19]): 0.025 µg/mL (≈ 0.0411 µM)
SMILES: CO/N=C(\C(=O)N[C@@H]1C(=O)N2C(C(=O)OCOC(=O)C(C)(C)C)=C(/C=C/C3CCC(=O)O3)CS[C@H]12)c1csc(N)n1 (stereo partly drawn) [Example 53, Pivaloyloxymethyl 7β-[(Z)-2-aminothiazol-4-yl-2-methoxyiminoacetamido]-3-[(E)-2-(5 oxotetrahydrofuran-2-yl)vinyl]-3-cephem-4-carboxylate]

MIC [6, 15]: 0.2 µg/mL (≈ 0.364 µM) | MIC [7, 16]: 0.1 µg/mL (≈ 0.182 µM) | MIC [8, 17]: 0.1 µg/mL (≈ 0.182 µM) | MIC [9, 18]: 0.8 µg/mL (≈ 1.46 µM) | MIC (Escherichia coli NIHJ; [19]): 0.4 µg/mL (≈ 0.728 µM)
SMILES: CC(C)(C)C(=O)OCOC(=O)C1=C(/C=C\C2CC2)CS[C@@H]2[C@H](NC(=O)/C(=N\O)c3csc(N)n3)C(=O)N12 [Example 58, Pivaloyloxymethyl 7-62-[(Z)-2-(2-aminothiazol-4-yl)-2-hydroxyiminoacetamido]-3-[(Z)-cyclopropylvinyl]-3-cephem-4-carboxylate]
